Columns and labels:
Format in all cases: physicochemical
[1] = Evaluation of light resistance (residual rate after ultraviolet irradiation); conditions: 5 mg in acetonitrile (20 ml), 1 cm quartz cell, ultraviolet light 3 J/cm^2; residual rate by liquid chromatography
Procedure: Each (5 mg) of the compounds was dissolved in acetonitrile (20 ml), sealed in a 1 cm quartz cell, and the quartz cell was irradiated with ultraviolet light under a condition of 3 J/cm^2 using EXECURE 3000-W manufactured by HOYA-SCHOTT CORPORATION, so that a residual rate of each compound was measured. Amounts (masses) of each compound before and after light irradiation were calculated using liquid chromatography. In Table 1, “A” represents a residual rate of equal to or greater than 80%, “B” represents a residual rate of equal to or greater than 50% and less than 80%, and “C” represents a residual rate of less than 50%.
The residual rate is a ratio of an amount (mass) of a compound after light irradiation to an amount (mass) of the compound before light irradiation, and can be calculated by the following expression. Residual rate (%)=(amount of compound after light irradiation/amount of compound before light irradiation)×100

[2] = Solubility measurement in ethyl methyl ketone; conditions: concentration in ethyl methyl ketone solution where the compound was completely dissolved
Procedure: Ethyl methyl ketone was added dropwise to each of the compounds, and a concentration (% by mass) of the compound in the obtained ethyl methyl ketone solution in a case where the compound was completely dissolved in the solution was measured as “solubility”. It is intended that a higher numerical value of solubility indicates excellent solubility in ethyl methyl ketone.

[3] = Δn (refractive index anisotropy) measurement, wedge-shaped liquid crystal cell; conditions: at 550 nm and 30° C.; for compounds liable to crystallize, estimated from extrapolated values of mixtures with other liquid crystals
From the text: As a method of measuring the Δn, a method using a wedge-shaped liquid crystal cell described on page 202 of the Liquid Crystal Handbook (edited by Liquid Crystal Handbook Editing Committee, published by Maruzen Co., Ltd.) is generally used. In a case of a compound which is liable to crystallize, it is also possible to carry out evaluation with a mixture thereof with other liquid crystals and to estimate Δn from extrapolated values thereof.
The Δn corresponds to a measured value at a wavelength of 550 nm at 30° C.
Δn of each of the compounds was measured by a method using a wedge-shaped liquid crystal cell described on page 202 of the Liquid Crystal Handbook (edited by Liquid Crystal Handbook Editing Committee, published by Maruzen Co., Ltd.). In a case of the compound which is liable to crystallize, evaluation with a mixture thereof with other liquid crystals was carried out and Δn was estimated from extrapolated values thereof. The values in the table represent Δn's at 550 nm and 30° C.

Structure (SMILES) | Light resistance evaluation [1] | Solubility [2] | Δn [3]
C=CC(=O)OCCCCOc1ccc(C#Cc2ccc(NC(=O)c3ccc(OCCCCOC(=O)C=C)cc3)cc2)cc1 [Compound a-1] | A (a residual rate of equal to or greater than 80%) | 5 % by mass | 0.289
C=CC(=O)OCCCCOc1ccc(C#Cc2ccc(NC(=O)c3ccc(OCCCCOC(=O)C=C)cc3)c(C)c2)cc1 [Compound a-2] | A (a residual rate of equal to or greater than 80%) | 23 % by mass | 0.280
C=CC(=O)OCCCCOc1ccc(C#Cc2ccc(NC(=O)c3ccc(OCCCCOC(=O)C=C)cc3)cc2C)cc1 [Compound a-3] | A (a residual rate of equal to or greater than 80%) | 19 % by mass | 0.282
C=CC(=O)OCCCCOc1ccc(C#Cc2ccc(NC(=O)c3ccc(OCCCCOC(=O)C=C)cc3)c(OC)c2)cc1 [Compound a-4] | A (a residual rate of equal to or greater than 80%) | 20 % by mass | 0.301
C=CC(=O)OCCCCOc1ccc(C#Cc2ccc(NC(=O)c3ccc(OCCCCOC(=O)C=C)cc3)c(F)c2)cc1 [Compound a-5] | A (a residual rate of equal to or greater than 80%) | 11 % by mass | 0.278
C=CC(=O)OCCCCOc1ccc(C#Cc2ccc(NC(=O)c3ccc(OCCCCOC(=O)C=C)cc3)c(C(F)(F)F)c2)cc1 [Compound a-6] | A (a residual rate of equal to or greater than 80%) | 38 % by mass | 0.287
C=CC(=O)OCCCCOc1ccc(C(=O)Nc2ccc(C#Cc3ccc4nc(SCCCCOC(=O)C=C)sc4c3)cc2C(F)(F)F)cc1 [Compound a-7] | A (a residual rate of equal to or greater than 80%) | 22 % by mass | 0.304
C=CC(=O)OCCCCOc1ccc(C#Cc2ccc(C(=O)Nc3ccc(C#Cc4ccc(OCCCCOC(=O)C=C)cc4)cc3C(F)(F)F)cc2)cc1 [Compound a-8] | A (a residual rate of equal to or greater than 80%) | 22 % by mass | 0.370
C=CC(=O)OCCCCOc1ccc(C(=O)Oc2ccc(C#Cc3ccc(CCCCCCC)cc3)cc2)cc1 [Compound b-1, reference compound] | C (a residual rate of less than 50%) | – | 0.220
